Source: PubChem BioAssay (NCI)
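Following 48 hours of exposure in 96-well plates, responses at five concentrations were used to interpolate endpoints linearly. GI50: concentration for 50% inhibition of growth. TGI is the concentration that stops growth completely.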

Columns and labels:
Assay in all cases: NCI anticancer screen, dose series, 48 h
HCT-116 colon = tested on: HCT-116 colon
SNB-75 CNS = tested on: SNB-75 CNS
NCI-H23 lung = tested on: NCI-H23 lung
CCRF-CEM leukemia = tested on: CCRF-CEM leukemia
SNB-19 CNS = tested on: SNB-19 CNS
MOLT-4 leukemia = tested on: MOLT-4 leukemia
LXFL 529 NSCLC = tested on: LXFL 529 NSCLC
M19-MEL melanoma = tested on: M19-MEL melanoma
SNB-78 CNS = tested on: SNB-78 CNS
KM20L2 colon = tested on: KM20L2 colon

SMILES | TGI (HCT-116 colon) [µM] | TGI (SNB-75 CNS) [µM] | TGI (NCI-H23 lung) [µM] | TGI (CCRF-CEM leukemia) [µM] | TGI (SNB-19 CNS) [µM] | TGI (MOLT-4 leukemia) [µM] | GI50 (LXFL 529 NSCLC) [µM] | TGI (LXFL 529 NSCLC) [µM] | GI50 (M19-MEL melanoma) [µM] | TGI (M19-MEL melanoma) [µM] | GI50 (SNB-78 CNS) [µM] | TGI (SNB-78 CNS) [µM] | GI50 (KM20L2 colon) [µM] | TGI (KM20L2 colon) [µM]
COC(=O)C1=CC2C(=O)c3ccccc3C1(c1ccccc1)N2C1CCCCC1 (centres undefined) | > 100 | > 100 | > 100 | > 100 | > 100 | > 100 |  |  |  |  |  |  |  | 
NC(=O)NC1NC(=O)NC1=O (centres undefined) | > 100 | > 100 | > 100 | > 100 | > 100 | > 100 |  |  |  |  |  |  |  | 
Cc1cc(S(=O)(=O)Nc2nc(N)nc(N3N=CCC3C)n2)c(SCC(=O)O)cc1Cl (centres undefined) | > 10 | > 10 | > 10 | > 10 | > 10 | > 10 |  |  |  |  |  |  |  | 
C=C(C)C1CC=C(C)C(=O)C1 (centres undefined) | > 100 | > 100 | > 100 | > 100 | > 100 | > 100 |  |  |  |  |  |  |  | 
O=C(/C=C/c1cccc([N+](=O)[O-])c1)N1CCN(CCOC(c2ccccc2)c2ccccc2)CC1 | 51.8 | > 100 | > 100 | 65.4 | > 100 | 27.4 |  |  |  |  |  |  |  | 
Cn1c(-c2cccs2)cc(-c2cccs2)c1-c1cccs1 | > 100 | > 100 | > 100 | > 100 | > 100 | > 100 |  |  |  |  |  |  |  | 
O=C1CC(Br)c2c(Br)sc(Br)c21 (centres undefined) | 26.4 | 42.4 | 32 | 9.42 | 76.2 | 25.5 |  |  |  |  |  |  |  | 
[O-][n+]1nc(N2CCOCC2)nc2ccccc21 | > 100 | > 100 | > 100 | > 100 | > 100 | > 100 |  |  |  |  |  |  |  | 
N=C1C(=N)c2ccccc2-c2ccccc21.[Cl-].[Ru+2].c1cnc2c(c1)ccc1cccnc12.c1cnc2c(c1)ccc1cccnc12 | 88.8 | > 100 | > 100 | 74.7 |  | 96.9 | 18.9 | 55.7 | 24.6 | > 100 | 39.2 | > 100 | 34.5 | 92.5
CC1=NN(c2cccc(S(=O)(=O)O)c2)C2(C1)C(Cl)C(=O)N2c1nc2ccccc2s1 (centres undefined) | 20.4 | 13.1 | 13.5 | 3.67 | 27 | 11.8 |  |  |  |  |  |  |  | 
CCN(CCCl)c1cc(CN(C)C)cc(NC(=O)c2ccc(C(=O)Nc3cc(CN(C)C)cc(N(CC)CCCl)c3)cc2)c1 | 1.06 | 0.506 | 0.472 | 1.01 | 0.936 | 0.248 |  |  |  |  |  |  |  | 
CCCCCCCCCCCCCCCCP(=O)(O)OCC(N)C(=O)O (centres undefined) | 48.9 | 65.1 | > 100 | > 100 | 44.8 | 42.4 |  |  |  |  |  |  |  | 
O=C(O)c1cccc(Nc2c(C(=O)O)cccc2[N+](=O)[O-])c1 | > 100 | > 100 | > 100 | > 100 | > 100 | > 100 |  |  |  |  |  |  |  | 
COc1cc2c(cc1C)NC(=O)/C2=C/c1cccnc1 | 31.2 | > 100 | 24.8 | > 56.8 | 32.1 | 24.1 |  |  |  |  |  |  |  | 
C1C2CC3CC1CC(c1nn4c(C56CC7CC(CC(C7)C5)C6)nnc4s1)(C2)C3 | > 100 | > 100 | > 100 | > 100 | > 100 | > 100 |  |  |  |  |  |  |  | 
CN(CCC(=O)N1CC(CCl)c2ccc([N+](=O)[O-])cc21)CCC(=O)N1CC(CCl)c2ccc([N+](=O)[O-])cc21 (centres undefined) | 26.1 | 19 | 29.3 | > 100 | > 100 | 24.2 |  |  |  |  |  |  |  | 
OCC1OC(NC(=S)NCCC(F)(F)C(F)(F)C(F)(F)C(F)(F)C(F)(F)C(F)(F)F)C(O)C(O)C1O (centres undefined) | > 100 | > 100 | > 100 | > 100 | > 100 | > 100 |  |  |  |  |  |  |  | 
CC12CCCC(C(=O)O)(C1)[C@H](C(C)(C)C(=O)O)CC2 (some centres undefined) | > 100 | > 100 | > 100 | > 100 | > 100 | > 100 |  |  |  |  |  |  |  | 
O=C(CSc1ncccn1)N/N=C/c1ccccc1OCc1ccccc1 | 53.4 | 67.7 | > 100 | 57.9 | > 100 | 65.8 |  |  |  |  |  |  |  | 
CN1CCCC2C(c3ccccc3)C(C3=NCCCC3)C(c3ccccc3)CC21 (centres undefined) | > 100 | 38 | > 100 | > 100 | > 100 | > 100 |  |  |  |  |  |  |  | 
NC(CSS(=O)(=O)O)=NC1CC2CCC1C2 (centres undefined) | > 100 | > 100 | > 100 | > 100 | > 100 | > 100 |  |  |  |  |  |  |  | 
O=C1c2c(Br)sc(Br)c2C(NC(=O)C(F)(F)F)C1O (centres undefined) | 32.6 | > 100 | 46.3 | 56.3 | 56.4 | > 100 |  |  |  |  |  |  |  | 
